In patent publication US20240158406A1, “PIPERAZINE DERIVATIVE AND USE THEREOF IN MEDICINE” (CHENGDU BAIYU PHARMACEUTICAL CO., LTD., priority 2021, published 2024):

Assays:
MDCKII-MDR1 cells = assay: MDCKII-MDR1 cell permeability assay; format: in vitro ADME; conditions: 1 μM test compound, 2 h
Experimental: 50 μL of MDCKII-MDR1 cell suspension with a density of 1.56×10^6 cells/mL was seeded into a Transwell well of a 96-well plate, and the plate was cultured in a cell incubator at 37° C. in 5% CO2. […] The medium in Transwell was discarded, and HBSS equilibration solution was added and incubated at 37° C. for 30 min. Subsequently, an apical to basolateral drug transport rate assay was performed by adding 1 μM test compound solution to the Transwell AB side and a blank equilibration solution to the BL side. When the basolateral to apical drug transport rate assay was performed, the operation steps were reversed. Subsequently, the cells were placed in an incubator for 2 h. After the incubation, samples were taken from the basolateral and apical respectively, and after centrifugation, the supernatant was subjected to LC-MS/MS analysis, and the apparent permeability coefficient (Papp) was calculated, the results of which are shown in Table 5.

[1] = Metabolic stability in liver microsome; format: in vitro ADME; conditions: 0.5 mg/mL CD1 mouse liver microsome, 0.5 μM test compound, NADPH and UDPGA, 37° C.
Experimental: 0.5 mg/mL CD1 mouse liver microsome solution, 0.5 μM test compound, 1.0 mM reduced nicotinamide adenine dinucleotide phosphate (NADPH), and 1.0 mM uridine diphosphate-A-glucuronic acid (UDPGA) were added to the incubation plate and mixed, and the plate was incubated at 37° C. for 0, 30, 60, 120 min separately. The positive control group was set as 0.5 μM CYP3A4 probe substrate-testosterone and 0.5 μM UGT probe substrate-7-hydroxycoumarin incubated with microsomes for 0 and 120 min in the presence of NADPH and UDPGA; the negative control group (NC) was set as the test substance incubated with microsomes for 0 and 120 min without any coenzyme. After the reaction was terminated by adding pre-cooled methanol at each termination time, the reaction mixture was centrifuged at 4000 rpm for 10 min, the supernatant was taken and the remaining amount of the parent drug in the sample was measured by LC-MS/MS, the results of which are shown in Table 4.

PARP14 = PARP14 (Homo sapiens (Human), UniProt Q460N5); assay: Enzymatic biochemical assay of PARP (chemiluminescence detection kit), PARP14
Experimental: (§1) This assay adopted PARP1, TNKS1, TNKS2, PARP7 and PARP14 chemiluminescence detection kits (BPS, Cat No. 80551/80552/80573/80578/79729/80568) for enzymatic biochemical assay of PARP. The specific scheme was as follows: the 1× histone mixture was added to a 96-well plate at 50 μL per well, and the plate was incubated overnight at 4° C. The next day, after the plate was washed with PBST, 200 μL of blocking buffer per well was added, and the plate was incubated for 90 min. After the plate was washed with PBST again, 5 μL of inhibitor, 20 μL of 1×PARP buffer and 25 μL of […] were added to each well, and the plate was incubated at room temperature for 30 min. After the plate was washed with PBST, 100 μL of Elisa ECL substrate A and B mixture was added to each well, chemiluminescence value was immediately read using a plate reader, and IC50 values were calculated.

NCI-H1373 cells = assay: NCI-H1373 cell proliferation inhibition assay; format: cell-based; conditions: Homo sapiens, NCI-H1373, 144 h; 6 days of incubation, Cell Titer Blue
Experimental: Human lung adenocarcinoma cells NC-H1373 (ATCC, CRL-5866M) were cultured in a cell incubator at 37° C. and 5% CO2 using RPMI-1640 medium containing 10% FBS and 1% […]. The cells in the logarithmic growth phase were counted by digestion and inoculated in a 96-well plate at 1500 NCI-H1373 per well, and the plate was placed in an incubator overnight. The next day, test compounds were formulated in 10 mM stock solution by using DMSO and 3-fold diluted in gradient from a maximum concentration of 10 μM by using RPMI-1640 medium, and 10 gradient concentrations were set with 2 parallel wells per concentration gradient. After 6 days of incubation, 100 μL of Cell Titer Blue working solution was added to each well and the chemiluminescence value was read in a microplate reader. IC50 was calculated using GraphPad Prism7.0 software.

TNKS1 = TNKS1 (Homo sapiens (Human), UniProt O95271); assay: Enzymatic biochemical assay of PARP (chemiluminescence detection kit), TNKS1
Experimental: as §1

PARP7 = PARP7 (Homo sapiens (Human), UniProt Q7Z3E1); assay: Enzymatic biochemical assay of PARP (chemiluminescence detection kit), PARP7; conditions: read-out: Inhibitory activity against PAPR7 (IC50)
Experimental: as §1

PARP1 = PARP1 (Homo sapiens (Human), UniProt P09874); assay: Enzymatic biochemical assay of PARP (chemiluminescence detection kit), PARP1
Experimental: as §1

TNKS2 = TNKS2 (Homo sapiens (Human), UniProt Q9H2K2); assay: Enzymatic biochemical assay of PARP (chemiluminescence detection kit), TNKS2
Experimental: as §1

Chain of PARP1 (P09874 whole entry): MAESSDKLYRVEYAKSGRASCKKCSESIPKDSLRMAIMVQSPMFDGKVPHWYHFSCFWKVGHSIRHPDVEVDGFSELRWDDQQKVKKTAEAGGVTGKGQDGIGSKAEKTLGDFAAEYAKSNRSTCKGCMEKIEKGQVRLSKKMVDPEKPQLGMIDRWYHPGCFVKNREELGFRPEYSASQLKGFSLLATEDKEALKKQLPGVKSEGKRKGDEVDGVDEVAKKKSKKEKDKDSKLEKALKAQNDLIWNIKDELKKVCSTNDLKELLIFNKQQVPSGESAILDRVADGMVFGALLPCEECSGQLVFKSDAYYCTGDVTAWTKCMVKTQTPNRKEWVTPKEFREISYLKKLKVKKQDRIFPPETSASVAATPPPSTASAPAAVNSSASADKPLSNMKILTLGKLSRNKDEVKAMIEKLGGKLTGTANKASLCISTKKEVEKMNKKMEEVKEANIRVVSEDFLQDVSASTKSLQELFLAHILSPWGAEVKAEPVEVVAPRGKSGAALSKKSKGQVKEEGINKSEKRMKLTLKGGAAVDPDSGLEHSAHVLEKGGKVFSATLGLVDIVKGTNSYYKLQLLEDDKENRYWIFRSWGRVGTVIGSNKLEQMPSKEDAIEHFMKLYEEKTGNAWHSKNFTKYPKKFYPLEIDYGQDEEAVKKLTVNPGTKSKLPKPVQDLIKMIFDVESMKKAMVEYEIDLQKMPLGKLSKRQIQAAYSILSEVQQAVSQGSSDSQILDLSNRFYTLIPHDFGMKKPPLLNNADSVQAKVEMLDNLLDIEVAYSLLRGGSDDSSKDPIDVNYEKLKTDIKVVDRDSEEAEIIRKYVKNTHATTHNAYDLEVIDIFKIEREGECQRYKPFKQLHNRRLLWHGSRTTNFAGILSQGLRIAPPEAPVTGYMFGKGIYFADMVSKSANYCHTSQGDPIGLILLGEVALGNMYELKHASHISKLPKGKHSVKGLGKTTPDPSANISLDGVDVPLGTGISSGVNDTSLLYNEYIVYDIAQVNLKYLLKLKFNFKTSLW
Chain of PARP14 (Q460N5 whole entry): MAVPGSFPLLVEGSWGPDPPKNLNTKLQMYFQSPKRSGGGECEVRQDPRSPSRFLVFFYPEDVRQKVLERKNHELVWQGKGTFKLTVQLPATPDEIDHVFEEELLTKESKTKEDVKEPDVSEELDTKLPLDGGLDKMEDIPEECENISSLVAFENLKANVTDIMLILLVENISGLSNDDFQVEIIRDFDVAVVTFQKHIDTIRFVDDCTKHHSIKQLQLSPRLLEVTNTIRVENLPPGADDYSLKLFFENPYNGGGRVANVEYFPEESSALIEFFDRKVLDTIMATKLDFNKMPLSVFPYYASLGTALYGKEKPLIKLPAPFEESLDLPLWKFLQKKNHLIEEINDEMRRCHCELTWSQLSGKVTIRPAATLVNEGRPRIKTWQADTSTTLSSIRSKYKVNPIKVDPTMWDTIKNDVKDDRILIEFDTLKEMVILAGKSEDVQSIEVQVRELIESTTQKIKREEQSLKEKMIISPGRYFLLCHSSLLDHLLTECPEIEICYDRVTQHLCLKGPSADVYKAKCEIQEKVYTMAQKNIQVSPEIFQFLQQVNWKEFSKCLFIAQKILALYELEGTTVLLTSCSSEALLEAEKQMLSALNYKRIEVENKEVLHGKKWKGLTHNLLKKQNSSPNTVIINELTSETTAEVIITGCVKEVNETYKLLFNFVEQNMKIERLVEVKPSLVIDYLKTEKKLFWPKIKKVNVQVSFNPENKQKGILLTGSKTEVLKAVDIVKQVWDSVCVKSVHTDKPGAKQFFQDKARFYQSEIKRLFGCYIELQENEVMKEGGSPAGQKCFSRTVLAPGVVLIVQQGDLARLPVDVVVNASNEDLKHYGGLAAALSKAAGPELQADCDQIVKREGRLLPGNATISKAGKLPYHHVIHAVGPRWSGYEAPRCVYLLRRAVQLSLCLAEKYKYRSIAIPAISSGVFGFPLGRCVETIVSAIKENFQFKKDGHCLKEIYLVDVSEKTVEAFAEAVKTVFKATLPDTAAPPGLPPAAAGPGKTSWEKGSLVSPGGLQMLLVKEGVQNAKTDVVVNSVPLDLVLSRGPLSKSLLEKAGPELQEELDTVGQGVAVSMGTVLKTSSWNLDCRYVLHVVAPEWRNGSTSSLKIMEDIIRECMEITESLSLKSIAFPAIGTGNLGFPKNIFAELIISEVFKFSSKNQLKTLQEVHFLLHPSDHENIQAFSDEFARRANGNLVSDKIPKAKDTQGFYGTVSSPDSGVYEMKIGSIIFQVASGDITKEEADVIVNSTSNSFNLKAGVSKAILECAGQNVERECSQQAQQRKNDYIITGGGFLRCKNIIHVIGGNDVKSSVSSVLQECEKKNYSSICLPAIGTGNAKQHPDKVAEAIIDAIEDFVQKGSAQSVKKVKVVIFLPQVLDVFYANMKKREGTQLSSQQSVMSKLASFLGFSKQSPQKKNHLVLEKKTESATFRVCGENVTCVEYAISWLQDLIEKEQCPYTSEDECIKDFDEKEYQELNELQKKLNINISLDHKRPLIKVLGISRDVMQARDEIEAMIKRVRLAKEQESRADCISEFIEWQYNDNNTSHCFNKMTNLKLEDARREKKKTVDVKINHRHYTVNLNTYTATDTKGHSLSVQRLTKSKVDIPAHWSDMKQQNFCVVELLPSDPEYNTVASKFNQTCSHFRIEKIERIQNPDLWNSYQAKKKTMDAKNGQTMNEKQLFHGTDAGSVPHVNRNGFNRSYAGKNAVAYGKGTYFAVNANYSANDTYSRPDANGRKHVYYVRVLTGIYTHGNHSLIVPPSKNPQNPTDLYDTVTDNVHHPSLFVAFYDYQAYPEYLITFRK
Chain of PARP7 (Q7Z3E1 whole entry): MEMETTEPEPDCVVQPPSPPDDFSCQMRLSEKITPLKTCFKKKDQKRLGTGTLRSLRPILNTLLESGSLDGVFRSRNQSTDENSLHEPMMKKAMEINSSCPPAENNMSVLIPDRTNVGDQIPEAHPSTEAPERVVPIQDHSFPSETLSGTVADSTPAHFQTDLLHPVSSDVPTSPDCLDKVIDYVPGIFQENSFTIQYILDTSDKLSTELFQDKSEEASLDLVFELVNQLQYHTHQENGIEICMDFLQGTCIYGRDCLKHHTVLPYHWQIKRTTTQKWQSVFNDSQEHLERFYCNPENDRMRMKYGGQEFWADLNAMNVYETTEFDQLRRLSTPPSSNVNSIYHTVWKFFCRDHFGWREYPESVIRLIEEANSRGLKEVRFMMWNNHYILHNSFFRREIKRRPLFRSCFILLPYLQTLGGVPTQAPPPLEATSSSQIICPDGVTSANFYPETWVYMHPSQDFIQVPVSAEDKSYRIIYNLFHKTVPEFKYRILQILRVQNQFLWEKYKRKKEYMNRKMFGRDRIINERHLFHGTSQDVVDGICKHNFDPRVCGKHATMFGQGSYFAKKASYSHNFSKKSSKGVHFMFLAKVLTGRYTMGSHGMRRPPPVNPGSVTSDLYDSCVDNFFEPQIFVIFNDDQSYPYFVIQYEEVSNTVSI
Chain of TNKS2 (Q9H2K2 whole entry): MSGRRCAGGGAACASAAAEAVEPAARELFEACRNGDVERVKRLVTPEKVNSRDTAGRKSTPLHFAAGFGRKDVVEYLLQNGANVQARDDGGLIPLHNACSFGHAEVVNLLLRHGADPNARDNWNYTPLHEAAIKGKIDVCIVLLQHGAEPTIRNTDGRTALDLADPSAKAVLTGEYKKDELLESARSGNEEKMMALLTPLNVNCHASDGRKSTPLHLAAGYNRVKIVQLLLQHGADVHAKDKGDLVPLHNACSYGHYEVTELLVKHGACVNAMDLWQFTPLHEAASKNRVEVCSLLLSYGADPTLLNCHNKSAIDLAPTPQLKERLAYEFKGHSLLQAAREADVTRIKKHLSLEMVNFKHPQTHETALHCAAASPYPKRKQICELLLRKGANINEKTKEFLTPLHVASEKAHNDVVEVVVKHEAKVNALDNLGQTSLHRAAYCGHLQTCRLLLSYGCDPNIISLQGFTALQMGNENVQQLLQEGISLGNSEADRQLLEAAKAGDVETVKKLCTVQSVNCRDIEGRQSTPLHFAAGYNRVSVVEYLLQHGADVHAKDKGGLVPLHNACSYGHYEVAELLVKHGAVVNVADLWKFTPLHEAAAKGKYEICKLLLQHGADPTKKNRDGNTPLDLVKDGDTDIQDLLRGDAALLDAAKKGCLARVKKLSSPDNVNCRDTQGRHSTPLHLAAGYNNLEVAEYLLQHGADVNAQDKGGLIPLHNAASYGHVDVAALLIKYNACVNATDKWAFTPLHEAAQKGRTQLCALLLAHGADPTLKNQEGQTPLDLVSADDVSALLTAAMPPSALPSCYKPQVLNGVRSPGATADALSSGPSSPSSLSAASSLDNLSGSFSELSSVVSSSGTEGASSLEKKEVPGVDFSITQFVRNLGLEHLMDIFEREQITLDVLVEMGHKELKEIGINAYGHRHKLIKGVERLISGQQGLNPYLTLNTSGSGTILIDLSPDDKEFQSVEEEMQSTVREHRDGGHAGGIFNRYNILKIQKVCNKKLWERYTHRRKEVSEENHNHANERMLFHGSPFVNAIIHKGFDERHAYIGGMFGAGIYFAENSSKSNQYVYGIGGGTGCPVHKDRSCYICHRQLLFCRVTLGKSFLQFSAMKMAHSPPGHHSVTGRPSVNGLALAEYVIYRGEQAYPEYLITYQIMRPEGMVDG

Papp (A-B) (MDCKII-MDR1 cells; apical to basolateral)	Papp (B-A) (MDCKII-MDR1 cells; basolateral to apical)	T1/2 [1]	SMILES	IC50 (PARP14)	half-life at 0.5 μM ([1]; liver microsomes)	IC50 (NCI-H1373 cells)	IC50 (TNKS1)	IC50 (PARP7)	IC50 (PARP1)	IC50 (TNKS2)
5.16 10-6, cm/s	49.43 10-6, cm/s	<30 min	C[C@@H](COCCC(=O)N1CCN(c2ncc(C(F)(F)F)cn2)CC1)Nc1cn[nH]c(=O)c1C(F)(F)F [Comparative example, reference compound]	–	–	–	–	–	–	–
–	–	–	C[C@@H](COCc1cc2n(n1)CCN(c1ncc(C(F)(F)F)cn1)C2)Nc1cn[nH]c(=O)c1C(F)(F)F [Compound 1]	> 10000 nM	> 30 min	< 50 nM	> 10000 nM	10 to 50 nM	> 1000 nM	> 10000 nM
